In ChEMBL document CHEMBL1142396, “Structure-activity relationships among the nitrogen containing bisphosphonates in clinical use and other analogues: time-dependent inhibition of human farnesyl pyrophosphate synthase” (J Med Chem, 2008):
Calls of active or inactive are those of the source. No cut-off for these calls is given here.

Key:
Rattus norvegicus = species on record: Rattus norvegicus; assay: Inhibition of bone resorption in rat assessed as phosphate; format: functional
[1] = target: T1, Farnesyl pyrophosphate synthase (Homo sapiens, UniProt P14324)
T1 sequence (P14324 whole entry): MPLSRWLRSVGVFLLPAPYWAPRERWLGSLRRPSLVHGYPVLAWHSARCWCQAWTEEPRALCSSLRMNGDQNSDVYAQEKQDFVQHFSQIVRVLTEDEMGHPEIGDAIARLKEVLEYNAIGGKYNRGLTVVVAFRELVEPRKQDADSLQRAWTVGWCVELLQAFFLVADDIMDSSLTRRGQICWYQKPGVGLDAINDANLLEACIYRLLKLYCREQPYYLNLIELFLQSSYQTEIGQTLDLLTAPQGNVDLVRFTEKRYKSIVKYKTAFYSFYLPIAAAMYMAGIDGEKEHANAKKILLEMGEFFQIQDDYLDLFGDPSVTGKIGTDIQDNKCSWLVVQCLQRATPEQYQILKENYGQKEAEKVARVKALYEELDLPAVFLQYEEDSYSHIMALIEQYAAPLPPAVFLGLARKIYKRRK

[2] = target: T1, Farnesyl pyrophosphate synthase; remark: listed apart in the source

With NCCC(O)(P(=O)(O)O)P(=O)(O)O [PAMIDRONIC ACID] as the compound, how does the LED (Rattus norvegicus) read?
The LED was 30 µg/kg.

O=P(O)(O)C(NC1CCCCC1)P(=O)(O)O [(CYCLOHEXYLAMINO)METHYLENEDIPHOSPHONIC ACID] was tested. Which LED (Rattus norvegicus) did it give?
Its LED is 1 µg/kg.

Which results are given for O=P(O)(O)C(Cc1cccnc1)P(=O)(O)O?
IC50 [1]: 0.0326 µM; Ki [1]: 0.0074 µM; IC50 [2]: 0.173 µM; Ki [2]: 0.0348 µM; LED (Rattus norvegicus): 10 µg/kg

For O=P(O)(O)C(Cc1ccccn1)P(=O)(O)O [PIRIDRONIC ACID], which IC50 [1] is on record?
The IC50 was 0.0304 µM.

And the Ki [1]?
The Ki was 0.00445 µM.

And the IC50 [2]?
Its IC50 is 0.259 µM.

What about the Ki [2] of the same compound?
Its Ki is 0.039 µM.

And the LED (Rattus norvegicus)?
The LED was 10 µg/kg.

For Cc1cccnc1NC(P(C)(=O)O)P(C)(=O)O (stereo not given), which IC50 [1] is on record?
Its IC50 is 330 µM.

And the Ki [1]?
Its Ki is 93 µM.

And the IC50 [2]?
The IC50 was > 10000 µM.

What about the Ki [2] of the same compound?
The Ki was > 4000 µM.

What about the Activity (Rattus norvegicus) of the same compound?
The Activity was “inactive”.

How did the LED (Rattus norvegicus) turn out when O=P(O)(O)C(CNc1ccccn1)P(=O)(O)O was run?
The LED was 10 µg/kg.

O=P(O)(O)C(O)(CC1CCCCN1)P(=O)(O)O (stereo not given) was tested. Which IC50 [1] did it give?
Its IC50 is 0.0137 µM.

And the Ki [1]?
The Ki was 0.0016 µM.

What about the IC50 [2] of the same compound?
The IC50 was 0.592 µM.

What about the Ki [2] of the same compound?
Its Ki is 0.137 µM.

What about the LED (Rattus norvegicus) of the same compound?
The LED was 1 µg/kg.

Which IC50 [1] does the source give for O=P(O)(O)C(O)(Cc1ccccn1)P(=O)(O)O here?
The IC50 was 0.0092 µM.

And the Ki [1]?
Its Ki is 0.00074 µM.

What about the IC50 [2] of the same compound?
Its IC50 is 0.349 µM.

And the Ki [2]?
Its Ki is 0.0593 µM.

What about the LED (Rattus norvegicus) of the same compound?
Its LED is 1 µg/kg.

With NCCCCCC(O)(P(=O)(O)O)P(=O)(O)O [NERIDRONIC ACID] as the compound, how does the LED (Rattus norvegicus) read?
The LED was 10 µg/kg.

How did the LED (Rattus norvegicus) turn out when O=P(O)(O)C(O)(CCc1cccnc1)P(=O)(O)O was run?
The LED was 1000 µg/kg.

For O=P(O)(O)C(Nc1ccccn1)P(=O)(O)O, which LED (Rattus norvegicus) is on record?
The LED was 10 µg/kg.

Which results are given for Cc1cccnc1NCC(P(=O)(O)O)P(=O)(O)O?
IC50 [1]: 0.734 µM; Ki [1]: 0.196 µM; IC50 [2]: 0.989 µM; Ki [2]: 0.155 µM; LED (Rattus norvegicus): 1000 µg/kg

What does the source list for O=C(O)C(O)(Cc1cccnc1)P(=O)(O)O (stereo not given)?
Ki [1]: 61 µM; IC50 [2]: 467 µM; Ki [2]: 97.5 µM; LED (Rattus norvegicus): 300 µg/kg

Which LED (Rattus norvegicus) does the source give for O=P(O)(O)C(O)(Cc1cccnc1)P(=O)(O)O [RISEDRONIC ACID] here?
Its LED is 0.3 µg/kg.

Which LED (Rattus norvegicus) does the source give for O.O=P(O)(O)C(O)(Cn1ccnc1)P(=O)(O)O [ZOLEDRONIC ACID] here?
The LED was 0.1 µg/kg.

How did the LED (Rattus norvegicus) turn out when CCCCCN(C)CCC(O)(P(=O)(O)O)P(=O)(O)O [IBANDRONIC ACID] was run?
The LED was 0.1 µg/kg.

With CC1CCCN=C1NC(P(=O)(O)O)P(=O)(O)O (stereo not given) as the compound, how does the IC50 [1] read?
Its IC50 is 0.0103 µM.

What about the Ki [1] of the same compound?
The Ki was 0.001 µM.

And the IC50 [2]?
The IC50 was 0.541 µM.

What about the Ki [2] of the same compound?
The Ki was 0.0863 µM.

And the LED (Rattus norvegicus)?
Its LED is 0.3 µg/kg.

How did the IC50 [1] turn out when O=P(O)(O)CCc1cccnc1 was run?
Its IC50 is 824 µM.

And the Ki [1]?
Its Ki is 128 µM.

Which IC50 [1] does the source give for Cc1cccnc1NC(P(C)(=O)O)P(=O)(O)O (stereo not given) here?
Its IC50 is 0.0614 µM.

And the Ki [1]?
The Ki was 0.0116 µM.

What about the IC50 [2] of the same compound?
The IC50 was 1.89 µM.

And the Ki [2]?
Its Ki is 0.32 µM.

What about the LED (Rattus norvegicus) of the same compound?
Its LED is 1000 µg/kg.

For O=P(O)(O)C(CC1CCCCN1)P(=O)(O)O (stereo not given), which IC50 [1] is on record?
The IC50 was 0.0238 µM.

What about the Ki [1] of the same compound?
Its Ki is 0.00328 µM.

And the IC50 [2]?
Its IC50 is 0.869 µM.

What about the Ki [2] of the same compound?
The Ki was 0.112 µM.

How did the LED (Rattus norvegicus) turn out when O=P(O)(O)C(O)(Cc1ccccc1)P(=O)(O)O was run?
The LED was 100 µg/kg.

For NCCCCC(O)(P(=O)(O)O)P(=O)(O)O, which IC50 [1] is on record?
Its IC50 is 0.298 µM.

What about the Ki [1] of the same compound?
Its Ki is 0.0482 µM.

What about the IC50 [2] of the same compound?
Its IC50 is 1.08 µM.

What about the Ki [2] of the same compound?
Its Ki is 0.194 µM.

With C[n+]1cccc(CC(O)(P(=O)(O)O)P(=O)(O)O)c1 as the compound, how does the IC50 [1] read?
Its IC50 is 0.0196 µM.

And the Ki [1]?
The Ki was 0.0039 µM.

What about the IC50 [2] of the same compound?
The IC50 was 1.71 µM.

What about the Ki [2] of the same compound?
The Ki was 0.177 µM.

And the LED (Rattus norvegicus)?
The LED was 0.1 µg/kg.

For O=P(O)(O)OP(=O)(O)O [PYROPHOSPHORIC ACID], which IC50 [1] is on record?
The IC50 was 181 µM.

And the Ki [1]?
The Ki was 29.8 µM.

What about the IC50 [2] of the same compound?
Its IC50 is 243 µM.

What about the Ki [2] of the same compound?
The Ki was 40.5 µM.

With Cc1cccnc1NC(P(=O)(O)O)P(=O)(O)O as the compound, how does the LED (Rattus norvegicus) read?
The LED was 1 µg/kg.

What does the source list for Nc1ccccc1CC(O)(P(=O)(O)O)P(=O)(O)O?
IC50 [1]: 0.0216 µM; Ki [1]: 0.0034 µM; IC50 [2]: 0.371 µM; Ki [2]: 0.0646 µM; LED (Rattus norvegicus): 1 µg/kg

For NCCCC(O)(P(=O)(O)O)P(=O)(O)O [ALENDRONIC ACID], which LED (Rattus norvegicus) is on record?
The LED was 1 µg/kg.
